Legend:
β6 integrin = assay: qRT-PCR of integrin mRNA in NP tissue of aged mice; format: in vivo, mouse; conditions: NP cells of the aged mice
Description: After protein extraction, specimen from the same group of mice were prepared for RNA extraction using TRIzol reagent (Invitogen) according to the manufacturer's instruction. The purity of RNA was tested by measuring the absorbance at 260 and 280 nm. For qRT-PCR, two micrograms of RNA was reverse transcribed into cDNA using the SuperScript firststrand synthesis system (Invitrogen) and analyzed with SYBR Green-Master Mix (Qiagen) in the thermal cycler with two sets of primers specific for each target gene. Relative expression was calculated for each gene by the 2^−ΔΔCT method, with GAPDH for normalization.

NP cells = assay: Western blot of pCREB in cultured NP cells; format: cell-based, mouse
Description: Green fluorescent protein (GFP) labeled NP cells of notochordal origin were isolated from 15-day old Noto^Cre/+::ROSA26-lacZ^flox/flox male mice as previously described. The NP cells from 15-day old PTH1R^+/+ and PTH1R^−/−, IFT88^+/+ and IFT88^−/− male mice. Briefly, the cells were isolated from the NP region of IVDs in the spinal column from mid thoracic to lower lumbar region and digested initially with TrypLE Express (Gibco) for 30 minutes on shaker, followed by 0.25 mg/ml Collagense-P (Roche) for another […] at 37° C. The digested cells were washed twice with PBS, and cultured in α-MEM (Gibco) supplemented with 10% fetal calf serum (Atlanta Biologicals), and 1% penicillin—streptomycin (Mediatech) to 80-90% confluence at 37° C., 5% CO2 and 5% O2.
Western blot analyses were conducted on the protein lysates from in vitro cultured NP cells or NP tissues from mice at specific time points after PTH (1-34) treatment and human at different ages with lumbar disc degeneration. The protein extract was centrifuged, the concentration of supernatant evaluated by DC protein assay (Bio-Rad Laboratories), and then separated by SDS-PAGE and blotted on a polyvinylidene fluoride membrane (Bio-Rad Laboratories). Following incubation in specific antibodies, we detected proteins using an enhanced chemiluminescence kit (Amersham Biosciences). […]

18-month-old mice = assay: iPTH in aged mice: PPCT of IVD and L4 trabecular bone; format: in vivo, mouse; conditions: for IVD morphology: aged mice
Description: For the dosage screening experiments, 17 month old male C57BL/6J WT mice were assigned into four groups treated with different doses of PTH or vehicle; 20 μg/kg/d, 40 μg/kg/d and 80 μg/kg/d of human PTH (1-34) (Bachem Calif., Inc. King of Prussia, Pa., USA.) or vehicle groups. We chose the optimal dosage of PTH (1-34) for the rest of the experiment.
Propagation phase contrast micro-tomography (PPCT) based on the Synchrotron radiation scanning was performed at the BL13W1 biomedical beamline in the Shanghai Synchrotron Radiation Facility (SSRF) in China (FIG. 7A). To obtain high X-ray attenuation contrast images, the monochromatic X-ray energy was adjusted to 15 keV, the scanner was set at a voltage of 15 keV, exposure time set to 2.5 s, and the sample-to-detector distance (SDD) adjusted to 30 cm and a resolution of 3.7 μm per pixel. The images were reconstructed and analyzed using the GPU-CT-Reconstruction software (applied by the BL13W1 experimental station) and the VG Studio Max 3D software (version 2.1, Volume Graphics GmbH, Germany) respectively. The region of interest was defined to cover the whole L3-L4 compartment. The 3D quantitative analysis of IVDs was performed with the commercially available Image Pro Analyzer 3D software (Version 7.0, Media Cybernetics, Inc., USA). The 3D structural parameters analyzed for the mean height and volume and thickness distribution of IVDs. The trabecular bone of L4 was segmented from the bone marrow and analyzed to determine the trabecular bone volume fraction (BV/TV), trabecular thickness (Tb. Th), trabecular number (Tb. N) and trabecular separation (Tb. Sp).

NP tissue = assay: iPTH in PTH1R KO mice: Western blot of NP tissue; format: in vivo, mouse
Description: The 11 month-old PTH1R^+/+ and PTH1R^−/− male mice were randomized into four groups: PTH1R^+/++PTH (1-34), PTH1R^+/++Vehicle, PTH1R^−/−+PTH (1-34) and PTH1R^−/−+Vehicle groups (n=8 per group). The 11 month-olds IFT88^+/+ and IFT88^−/− male mice were randomized into four groups: IFT88^+/++PTH (1-34), IFT88^+/++Vehicle, IFT88^−/−+PTH (1-34) and IFT88^−/−+Vehicle groups (n=8 per group). Mice were subcutaneously injected with either PTH (1-34) or vehicle (1 mM acetic acid in phosphate buffered saline (PBS) with equivalent volume of PTH) daily, 5 days per week, and all mice were sacrificed 4 weeks after treatment with PTH (1-34)/vehicle.
Western blot analyses were conducted on the protein lysates from in vitro cultured NP cells or NP tissues from mice at specific time points after PTH (1-34) treatment and human at different ages with lumbar disc degeneration. The protein extract was centrifuged, the concentration of supernatant evaluated by DC protein assay (Bio-Rad Laboratories), and then separated by SDS-PAGE and blotted on a polyvinylidene fluoride membrane (Bio-Rad Laboratories). Following incubation in specific antibodies, we detected proteins using an enhanced chemiluminescence kit (Amersham Biosciences). We used specific antibodies recognizing rabbit CTGF (CCN2) (Abcam, 1:1000), Aggrecan (ACAN) (Abcan, 1:1000), p-Smad2 (Cell Signaling Technology Inc., 1:1000), Smad2 (Cell Signaling Technology Inc., 1:1000), GAPDH (Cell Signaling Technology Inc., 1:1000), CREB (Abcam, 1:2500), pCREB (Abcam, 1:2500), PTH1R PRB-635P (Covance, 1:100), PTH1R PRB-640P (Covance, 1:500) and goat integrin β6 (Santa Cruz, 1:500) to examine the protein concentrations in the lysates. Co-immunoprecipitation analyses were conducted on the nuclear and cytoplasmic protein extraction using NE-PER Nuclear and Cytoplasmic Extraction Kit (Pierce Thermo Scientific, 78833) from in vitro cultured NP cells treated with PTH (1-34) or vehicle.

[1] = 18-month-old mice relative to vehicle, 40 μg/kg
[2] = 18-month-old mice, L4 trabecular bone

CC[C@H](C)[C@H](NC(=O)[C@H](CCC(=O)O)NC(=O)[C@H](CO)NC(=O)[C@@H](NC(=O)[C@@H](N)CO)C(C)C)C(=O)N[C@@H](CCC(N)=O)C(=O)N[C@@H](CC(C)C)C(=O)N[C@@H](CCSC)C(=O)N[C@@H](Cc1cnc[nH]1)C(=O)N[C@@H](CC(N)=O)C(=O)N[C@@H](CC(C)C)C(=O)NCC(=O)N[C@@H](CCCCN)C(=O)N[C@@H](Cc1cnc[nH]1)C(=O)N[C@@H](CC(C)C)C(=O)N[C@@H](CC(N)=O)C(=O)N[C@@H](CO)C(=O)N[C@@H](CCSC)C(=O)N[C@@H](CCC(=O)O)C(=O)N[C@@H](CCCN=C(N)N)C(=O)N[C@H](C(=O)N[C@@H](CCC(=O)O)C(=O)N[C@@H](Cc1c[nH]c2ccccc12)C(=O)N[C@@H](CC(C)C)C(=O)N[C@@H](CCCN=C(N)N)C(=O)N[C@@H](CCCCN)C(=O)N[C@@H](CCCCN)C(=O)N[C@@H](CC(C)C)C(=O)N[C@@H](CCC(N)=O)C(=O)N[C@@H](CC(=O)O)C(=O)N[C@H](C(=O)N[C@@H](Cc1cnc[nH]1)C(=O)N[C@@H](CC(N)=O)C(=O)N[C@@H](Cc1ccccc1)C(=O)O)C(C)C)C(C)C [PTH (1-34), teriparatide]
mRNA expression of β6 integrin (β6 integrin): specifically induced | phosphorylation of CREB (Western blot) (NP cells; at 30 min): induced phosphorylation of CREB | PTH-enhanced phosphorylation of CREB (NP cells; knockdown of pallidin with siRNA): blocked | IVD height (18-month-old mice; [1]): increased | IVD volume (18-month-old mice; [1]): increased | bone volume (BV/TV) (18-month-old mice; [2]): increase | connectivity (Tb. Con) (18-month-old mice; [2]): increase | IVD thickness in 3D images in five different areas (18-month-old mice; 18-month-old mice, especially the central area of IVD): significant increase | IVD morphology (18-month-old mice; 40 μg/kg daily for eight weeks): significantly improved | IVD morphology (18-month-old mice; 80 μg/kg daily for eight weeks): significantly improved | PTH induced increase in level of ACAN (NP tissue): diminished | PTH induced increase in level of CCN2 (NP tissue): diminished | PTH induced increase in level of pSmad2 (NP tissue): diminished

— patent US20210205638A1, “PARATHYROID HORMONE AND REGENERATION OF DEGENERATIVE DISCS DISEASE” (THE JOHNS HOPKINS UNIVERSITY, priority 2017, published 2021)
